Assay results: PubChem BioAssay (NCI)
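Assay format: 96-well plates, 48-hour exposure. GI50 = concentration required for 50% inhibition of growth. TGI marks complete inhibition of growth.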

What was measured:
Assay in all cases: NCI-60 cell line screen, 48 h
[1] = tested on: 786-0 renal
[2] = tested on: A498 renal
[3] = tested on: A549 NSCLC
[4] = tested on: ACHN renal
[5] = tested on: BT-549 breast
[6] = tested on: CAKI-1 renal
[7] = tested on: CCRF-CEM leukemia
[8] = tested on: COLO 205 colon
[9] = tested on: DU-145 prostate
[10] = tested on: EKVX NSCLC
[11] = tested on: HCC-2998 colon
[12] = tested on: HCT-116 colon
[13] = tested on: HCT-15 colon
[14] = tested on: HL-60(TB) leukemia
[15] = tested on: HOP-62 NSCLC
[16] = tested on: HOP-92 NSCLC
[17] = tested on: HS 578T breast
[18] = tested on: HT29 colon
[19] = tested on: IGROV1 ovarian
[20] = tested on: K-562 leukemia
[21] = tested on: KM12 colon
[22] = tested on: LOX IMVI melanoma
[23] = tested on: M14 melanoma
[24] = tested on: MALME-3M melanoma
[25] = tested on: MCF7 breast
[26] = tested on: MDA-MB-231 breast
[27] = tested on: MDA-MB-435
[28] = tested on: MDA-MB-468 breast
[29] = tested on: MOLT-4 leukemia
[30] = tested on: NCI-H226 lung
[31] = tested on: NCI-H23 lung
[32] = tested on: NCI-H460 lung
[33] = tested on: NCI-H522 lung
[34] = tested on: NCI/ADR-RES ovarian
[35] = tested on: OVCAR-3 ovarian
[36] = tested on: OVCAR-4 ovarian
[37] = tested on: OVCAR-5 ovarian
[38] = tested on: OVCAR-8 ovarian
[39] = tested on: PC-3 prostate
[40] = tested on: RPMI-8226 leukemia
[41] = tested on: RXF 393 renal
[42] = tested on: SF-268 CNS
[43] = tested on: SF-295 CNS
[44] = tested on: SF-539 CNS
[45] = tested on: SK-MEL-2 melanoma
[46] = tested on: SK-MEL-28 melanoma
[47] = tested on: SK-MEL-5 melanoma
[48] = tested on: SK-OV-3 ovarian
[49] = tested on: SN12C renal
[50] = tested on: SNB-19 CNS
[51] = tested on: SNB-75 CNS
[52] = tested on: SW-620 colon
[53] = tested on: T-47D breast
[54] = tested on: TK-10 renal
[55] = tested on: U251 CNS
[56] = tested on: UACC-257 melanoma
[57] = tested on: UACC-62 melanoma
[58] = tested on: UO-31 renal
[59] = tested on: SR leukemia

SMILES: CC(=C(c1ccc(OCCCN(C)C)cc1)c1ccc(OCCCN(C)C)cc1)c1ccccc1
- GI50 [1]: 352 nM
- TGI [1]: 736 nM
- GI50 [2]: 3900 nM
- TGI [2]: 7220 nM
- GI50 [3]: 753 nM
- TGI [3]: 3180 nM
- GI50 [4]: 473 nM
- TGI [4]: 1040 nM
- GI50 [5]: 2440 nM
- TGI [5]: 5420 nM
- GI50 [6]: 515 nM
- TGI [6]: 1760 nM
- GI50 [7]: 438 nM
- TGI [7]: 1130 nM
- GI50 [8]: 396 nM
- TGI [8]: 744 nM
- GI50 [9]: 1100 nM
- TGI [9]: 3820 nM
- GI50 [10]: 2430 nM
- TGI [10]: 5280 nM
- GI50 [11]: 570 nM
- TGI [11]: 2080 nM
- GI50 [12]: 370 nM
- TGI [12]: 847 nM
- GI50 [13]: 635 nM
- TGI [13]: 2290 nM
- GI50 [14]: 389 nM
- TGI [14]: 1050 nM
- GI50 [15]: 2620 nM
- TGI [15]: 5930 nM
- GI50 [16]: 508 nM
- TGI [16]: 3280 nM
- GI50 [17]: 448 nM
- TGI [17]: 1780 nM
- GI50 [18]: 385 nM
- TGI [18]: 917 nM
- GI50 [19]: 1170 nM
- TGI [19]: 4020 nM
- GI50 [20]: 621 nM
- TGI [20]: 22000 nM
- GI50 [21]: 771 nM
- TGI [21]: 2690 nM
- GI50 [22]: 380 nM
- TGI [22]: 706 nM
- GI50 [23]: 386 nM
- TGI [23]: 768 nM
- GI50 [24]: 343 nM
- TGI [24]: 640 nM
- GI50 [25]: 213 nM
- TGI [25]: 655 nM
- GI50 [26]: 420 nM
- TGI [26]: 907 nM
- GI50 [27]: 470 nM
- TGI [27]: 1150 nM
- GI50 [28]: 358 nM
- TGI [28]: 805 nM
- GI50 [29]: 627 nM
- TGI [29]: 2430 nM
- GI50 [30]: 3890 nM
- TGI [30]: 8050 nM
- GI50 [31]: 2480 nM
- TGI [31]: 5300 nM
- GI50 [32]: 431 nM
- TGI [32]: 1030 nM
- GI50 [33]: 354 nM
- TGI [33]: 746 nM
- GI50 [34]: 1770 nM
- TGI [34]: 4650 nM
- GI50 [35]: 454 nM
- TGI [35]: 1280 nM
- GI50 [36]: 571 nM
- TGI [36]: 1800 nM
- GI50 [37]: 1160 nM
- TGI [37]: 4110 nM
- GI50 [38]: 979 nM
- TGI [38]: 3760 nM
- GI50 [39]: 818 nM
- TGI [39]: 3280 nM
- GI50 [40]: 608 nM
- TGI [40]: 1820 nM
- GI50 [41]: 339 nM
- TGI [41]: 874 nM
- GI50 [42]: 609 nM
- TGI [42]: 3100 nM
- GI50 [43]: 403 nM
- TGI [43]: 848 nM
- GI50 [44]: 353 nM
- TGI [44]: 660 nM
- GI50 [45]: 3010 nM
- TGI [45]: 6160 nM
- GI50 [46]: 376 nM
- TGI [46]: 685 nM
- GI50 [47]: 363 nM
- TGI [47]: 679 nM
- GI50 [48]: 3510 nM
- TGI [48]: 6790 nM
- GI50 [49]: 2440 nM
- TGI [49]: 5290 nM
- GI50 [50]: 835 nM
- TGI [50]: 3240 nM
- GI50 [51]: 804 nM
- TGI [51]: 4090 nM
- GI50 [52]: 339 nM
- TGI [52]: 708 nM
- GI50 [53]: 327 nM
- TGI [53]: 688 nM
- GI50 [54]: 714 nM
- TGI [54]: 3560 nM
- GI50 [55]: 461 nM
- TGI [55]: 1020 nM
- GI50 [56]: 360 nM
- TGI [56]: 699 nM
- GI50 [57]: 377 nM
- TGI [57]: 709 nM
- GI50 [58]: 360 nM
- TGI [58]: 733 nM

SMILES: COc1ccc(C(=O)/C=C/c2cccc(Cl)c2Cl)cc1S(N)(=O)=O
- GI50 [1]: 1880 nM
- TGI [1]: 4280 nM
- GI50 [2]: 9600 nM
- TGI [2]: 20000 nM
- GI50 [3]: 2520 nM
- TGI [3]: 9420 nM
- GI50 [4]: 1770 nM
- TGI [4]: 3900 nM
- GI50 [5]: 4730 nM
- TGI [5]: 17000 nM
- GI50 [6]: 4360 nM
- TGI [6]: 15000 nM
- GI50 [7]: 5740 nM
- TGI [7]: 33300 nM
- GI50 [8]: 2750 nM
- TGI [8]: 10300 nM
- GI50 [9]: 2860 nM
- TGI [9]: 10200 nM
- GI50 [10]: 10300 nM
- TGI [10]: 20900 nM
- GI50 [11]: 4210 nM
- TGI [11]: 15500 nM
- GI50 [12]: 1310 nM
- TGI [12]: 2720 nM
- GI50 [13]: 1290 nM
- TGI [13]: 2940 nM
- GI50 [14]: 7840 nM
- TGI [14]: 34200 nM
- GI50 [15]: 2300 nM
- TGI [15]: 7120 nM
- GI50 [16]: 5440 nM
- TGI [16]: 17200 nM
- GI50 [17]: 8640 nM
- TGI [17]: 32100 nM
- GI50 [18]: 1520 nM
- TGI [18]: 2990 nM
- GI50 [19]: 3240 nM
- TGI [19]: 12400 nM
- GI50 [20]: 2670 nM
- TGI [20]: 24100 nM
- GI50 [21]: 1990 nM
- TGI [21]: 4800 nM
- GI50 [22]: 1380 nM
- TGI [22]: 2540 nM
- GI50 [23]: 9520 nM
- TGI [23]: 21000 nM
- GI50 [24]: 9710 nM
- TGI [24]: 20100 nM
- GI50 [25]: 3170 nM
- TGI [25]: 13700 nM
- GI50 [26]: 2570 nM
- TGI [26]: 7610 nM
- GI50 [27]: 9650 nM
- TGI [27]: 20700 nM
- GI50 [28]: 2930 nM
- TGI [28]: 13100 nM
- GI50 [29]: 2090 nM
- TGI [29]: 6000 nM
- GI50 [30]: 2300 nM
- TGI [30]: 7500 nM
- GI50 [31]: 3800 nM
- TGI [31]: 14300 nM
- GI50 [32]: 1890 nM
- TGI [32]: 4940 nM
- GI50 [33]: 3010 nM
- TGI [33]: 12600 nM
- GI50 [34]: 1890 nM
- TGI [34]: 4750 nM
- GI50 [35]: 1800 nM
- TGI [35]: 4420 nM
- GI50 [36]: 3970 nM
- TGI [36]: 16700 nM
- GI50 [37]: 1910 nM
- TGI [37]: 5780 nM
- GI50 [38]: 2370 nM
- TGI [38]: 8780 nM
- GI50 [39]: 4490 nM
- TGI [39]: 16600 nM
- GI50 [40]: 2880 nM
- TGI [40]: 16200 nM
- GI50 [41]: 2090 nM
- TGI [41]: 8560 nM
- GI50 [42]: 3450 nM
- TGI [42]: 14500 nM
- GI50 [43]: 3890 nM
- TGI [43]: 14700 nM
- GI50 [44]: 1410 nM
- TGI [44]: 2610 nM
- GI50 [45]: 11300 nM
- TGI [45]: 22300 nM
- GI50 [46]: 11100 nM
- TGI [46]: 22000 nM
- GI50 [47]: 9190 nM
- TGI [47]: 19400 nM
- GI50 [48]: 12400 nM
- TGI [48]: 23800 nM
- GI50 [49]: 1820 nM
- TGI [49]: 3910 nM
- GI50 [50]: 5090 nM
- TGI [50]: 16100 nM
- GI50 [59]: 1540 nM
- TGI [59]: 5360 nM
- GI50 [52]: 1580 nM
- TGI [52]: 3300 nM
- GI50 [53]: 3940 nM
- TGI [53]: 16400 nM
- GI50 [54]: 5180 nM
- TGI [54]: 16900 nM
- GI50 [55]: 1310 nM
- TGI [55]: 2480 nM
- GI50 [56]: 11200 nM
- TGI [56]: 22500 nM
- GI50 [57]: 4850 nM
- TGI [57]: 16200 nM
- GI50 [58]: 1480 nM
- TGI [58]: 3510 nM
